Test results as given in PMC3480357, “Fragment-Hopping-Based Discovery of a Novel Chemical Series of Proto-Oncogene PIM-1 Kinase Inhibitors” (PLoS ONE, 2012).
pIC50: −log10 of the molar value.

What was measured:
[1] = biological target: PIM-3 (Homo sapiens, UniProt Q86V86); test: PIM-3 kinase ADP Hunter Plus assay; assay type: biochemical; conditions: 100 µM ATP, Figure 1
Experimental: Kinase activity was measured with the commercial ADP Hunter™ Plus assay (DiscoveRx Ref. #33-016), a homogeneous assay measuring ADP accumulation, as a universal product of kinase activity. The assay was conducted following the manufacturer’s recommendations and adapting the protein and substrate concentrations for optimal conditions. The kinase assay buffer was 15 mM HEPES, pH 7.4, 20 mM NaCl, 1 mM EGTA, 0.02% Tween-20, 10 mM MgCl2 and 0.1 mg/ml BGG (bovine γ-globulin). All PIM kinase assays were performed with 100 µM PIMtide ([…]) as the peptide substrate and 100 µM ATP. The protein concentrations were 50, 350 and 500 ng/µl for PIM-1, 2 and 3, respectively. To calculate the IC50 of the ETP-compounds, serial 1∶5 dilutions were prepared and the reaction was started with the addition of ATP. The reaction was incubated for 1 h at 25°C. Reagents A and B (DiscoveRx) were sequentially added to the wells, and the plates were incubated for 30 min at 37°C. Fluorescence counts were read in a Victor instrument (Perkin Elmer) with the recommended settings (544 and 580 nm as the excitation and emission wavelengths, respectively). Values were plotted against the inhibitor concentrations and fit to a sigmoid dose–response curve using GraphPad software.

[2] = biological target: PIM-2 (Homo sapiens, UniProt Q9P1W9); test: PIM-2 kinase ADP Hunter Plus assay; assay type: biochemical; conditions: 100 µM ATP
PIM-2, sequence (Q9P1W9 whole entry): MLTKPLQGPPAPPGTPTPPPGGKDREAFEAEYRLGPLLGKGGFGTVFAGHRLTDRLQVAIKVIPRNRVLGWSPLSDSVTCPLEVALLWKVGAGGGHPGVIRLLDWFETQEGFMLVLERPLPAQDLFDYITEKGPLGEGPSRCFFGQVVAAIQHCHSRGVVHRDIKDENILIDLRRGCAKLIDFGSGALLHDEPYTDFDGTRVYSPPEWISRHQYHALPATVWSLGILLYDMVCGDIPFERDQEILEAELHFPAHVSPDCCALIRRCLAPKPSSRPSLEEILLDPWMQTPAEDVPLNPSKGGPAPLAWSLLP

- pIC50 [1]: 6.00
- pIC50 [2]: 6.35
SMILES: CC(=O)c1cccc(-c2cnc3ccc(NCC4CC4)nn23)c1 [Compound 2, reference compound]
